Measured values: patent US9169241B2, “Quinolinyloxyphenylsulfonamides” (Max-Planck-Gesellschaft Zur Forderung der Wissenschaften …, priority 2009, dated 2015)
Read-outs that look alike come from different tables or passages of the source.

Experiments:
Type in all cases: cell-based
[1] = system: SF126; assay: Matrigel outgrowth assay/branching assay; settings: Homo sapiens, SF-126, Table Vb, read-out: Total branching inhibition in Matrigel SF126
How it was run: (§1)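 Invasive outgrowth into a 3 mg/ml Matrigel gel is judged from images taken after 48, 72 and 96 h of exposure to 3.125, 1.56 or 0.78 μM compound, with DMSO as control. Positive means total inhibition of branching.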

[2] = system: U118; assay: Matrigel outgrowth assay/branching assay; settings: Table Vb, read-out: Total branching inhibition in Matrigel U118
How it was run: as §1

[3] = system: A172; assay: Matrigel outgrowth assay/branching assay; settings: Homo sapiens, A 172, Table Vb, read-out: Total branching inhibition in Matrigel A172
How it was run: as §1

[4] = system: viable cells in culture; assay: Cell viability assay at 10 μM (CellTiter-Glo, Table VII); settings: compound 10 μM, 72 h;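 also: graded A 0-20%; B 21-40%; C 41-60%; D over 60% viable cells relative to DMSO control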
How it was run: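 Cells were seeded at 1000 cells/well in 96-well plates in 100 μl culture medium and incubated for 72 h with 10 μM compound or a DMSO control. ATP content, which reflects metabolically active and therefore viable cells, was then determined by CellTiter-Glo luminescence (Promega) per the manufacturer's instructions and expressed relative to the DMSO control.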

[5] = system: SF126; assay: Apoptosis assay (Cellomics, nucleus condensation); settings: Homo sapiens, SF-126, Table III, read-out: Apoptosis induction in SF126
How it was run: (§2)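 Cells at 5000 per well were stained live with Hoechst 33342 and imaged on an automated fluorescence microscope after 24 h and 48 h compound exposure (12.5 μM down to 0.39 μM, twofold steps; DMSO control). Per-nucleus intensity variation quantified nuclear condensation; cell counts were also recorded.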

[6] = system: SF763; assay: Apoptosis assay (Cellomics, nucleus condensation); settings: Table III, read-out: Apoptosis induction in SF763
How it was run: as §2

[7] = system: U118; assay: Apoptosis assay (Cellomics, nucleus condensation); settings: Table III, read-out: Apoptosis induction in U118
How it was run: as §2

[8] = system: C8161; assay: Apoptosis assay (Cellomics, nucleus condensation); settings: Homo sapiens, Table III, read-out: Apoptosis induction in C8161
How it was run: as §2

[9] = system: Hs578T; assay: Apoptosis assay (Cellomics, nucleus condensation); settings: Homo sapiens, Hs-578T, Table III, read-out: Apoptosis induction in Hs578T
How it was run: as §2

[10] = system: U138; assay: Apoptosis assay (Cellomics, nucleus condensation); settings: Table III, read-out: Apoptosis induction in U138
How it was run: as §2

[11] = Homo sapiens, HCT-116, HCT116 def, read-out: percentage (%) of viable cells HCT 116def
[12] = Homo sapiens, HCT-116, HCT116 wt, read-out: percentage (%) of viable cells HCT 116wt
[13] = Homo sapiens, HT-29, HT29, read-out: percentage (%) of viable cells HT29
[14] = Homo sapiens, NCI-H358, H358, read-out: percentage (%) of viable cells H358
[15] = Homo sapiens, NCI-H1650, H1650, read-out: percentage (%) of viable cells H1650
[16] = Homo sapiens, NCI-H1666, H1666, read-out: percentage (%) of viable cells H1666
[17] = Homo sapiens, NCI-H1975, H1975, read-out: percentage (%) of viable cells H1975
[18] = Homo sapiens, NCI-H1993, H1993, read-out: percentage (%) of viable cells H1993
[19] = Homo sapiens, A549, read-out: percentage (%) of viable cells A549
[20] = Homo sapiens, HCC827, read-out: percentage (%) of viable cells HCC827
[21] = Homo sapiens, SW480, read-out: percentage (%) of viable cells SW480
[22] = RKO, read-out: percentage (%) of viable cells RKO

IC50 [5] [µM]	IC50 [6] [µM]	IC50 [7] [µM]	IC50 [8] [µM]	IC50 [9] [µM]	Structure (SMILES)	IC100 [1] [µM]	IC100 [2] [µM]	IC100 [3] [µM]	viability at 10 µM [4, 11] [%]	viability at 10 µM [4, 12] [%]	viability at 10 µM [4, 13] [%]	viability at 10 µM [4, 14] [%]	viability at 10 µM [4, 15] [%]	viability at 10 µM [4, 16] [%]	viability at 10 µM [4, 17] [%]	viability at 10 µM [4, 18] [%]	viability at 10 µM [4, 19] [%]	viability at 10 µM [4, 20] [%]	viability at 10 µM [4, 21] [%]	viability at 10 µM [4, 22] [%]	other results
					COC(=O)c1sccc1S(=O)(=O)Nc1ccc(Oc2ccnc3cc(OCCCN4CCCC(C)C4)c(OC)cc23)c(F)c1 (stereo not shown) [Example 66, 3-(3-Fluoro-4-{6-methoxy-7-[3-(3-methyl-piperidin-1-yl)-propoxy]-quinolin-4-yloxy}-phenylsulfamoyl)-thiophene-2-carboxylic acid methyl ester]	≤ 12.5	≤ 12.5	> 12.5													
					COC(=O)c1sccc1S(=O)(=O)Nc1ccc(Oc2ccnc3cc(OCCCN4CCC(C)CC4)c(OC)cc23)c(F)c1 [Example 156, 3-(3-Fluoro-4-{6-methoxy-7-[3-(4-methyl-piperidin-1-yl)-propoxy]-quinolin-4-yloxy}-phenylsulfamoyl)-thiophene-2-carboxylic acid methyl ester]	≤ 12.5	≤ 12.5	> 12.5													
					COc1cc2c(Oc3ccc(NS(=O)(=O)c4c(F)cccc4F)cc3F)ccnc2cc1OCCCN1CCN(C)CC1 [Example 110, 2,6-Difluoro-N-(3-fluoro-4-{6-methoxy-7-[3-(4-methyl-piperazin-1-yl)-propoxy]-quinolin-4-yloxy}-phenyl)-benzenesulfonamide]	≤ 12.5	≤ 12.5	> 12.5													
					COc1cc2c(Oc3c(Cl)cc(NS(=O)(=O)c4c(F)cccc4F)cc3Cl)ccnc2cc1OCCCN1CCC(C)CC1 [Example 209, N-(3,5-Dichloro-4-{6-methoxy-7-[3-(4-methyl-piperidin-1-yl)-propoxy]-quinolin-4-yloxy}-phenyl)-2,6-difluoro-benzenesulfonamide]	≤ 12.5	≤ 12.5	≤ 12.5													
					COc1cc2c(Oc3ccc(NS(=O)(=O)c4ccccc4[N+](=O)[O-])cc3F)ccnc2cc1OCCCN1CCCC(C)C1 (stereo not shown) [Example 40, N-(3-Fluoro-4-{6-methoxy-7-[3-(3-methyl-piperidin-1-yl)-propoxy]-quinolin-4-yloxy}-phenyl)-2-nitro-benzenesulfonamide]	≤ 12.5	> 12.5	> 12.5													
					COC(=O)c1sccc1S(=O)(=O)Nc1ccc(Oc2ccnc3cc(OCCCN4CCN(C)CC4)c(OC)cc23)c(F)c1 [Example 158, 3-(3-Fluoro-4-{6-methoxy-7-[3-(4-methyl-piperazin-1-yl)-propoxy]-quinolin-4-yloxy}-phenylsulfamoyl)-thiophene-2-carboxylic acid methyl ester]	≤ 12.5	≤ 12.5	> 12.5													
					COc1cc2c(Oc3ccc(NS(=O)(=O)c4c(F)cccc4F)cc3F)ccnc2cc1OCCCN1CCCCC1 [Example 11, 2,6-Difluoro-N-{3-fluoro-4-[6-methoxy-7-(3-piperidin-1-yl-propoxy)-quinolin-4-yloxy]-phenyl}-benzenesulfonamide]	> 12.5	> 12.5	> 12.5													
					COC(=O)c1sccc1S(=O)(=O)Nc1ccc(Oc2ccnc3cc(OCCCN4CCCCC4)c(OC)cc23)c(F)c1 [Example 155, 3-{3-Fluoro-4-[6-methoxy-7-(3-piperidin-1-yl-propoxy)-quinolin-4-yloxy]-phenylsulfamoyl}-thiophene-2-carboxylic acid methyl ester]	≤ 12.5	≤ 12.5	≤ 12.5													
					COc1cc2c(Oc3ccc(NS(=O)(=O)c4c(Cl)cccc4Cl)cc3Cl)ccnc2cc1OCCCN1CCN(C)CC1 [Example 119, 2,6-Dichloro-N-(3-chloro-4-{6-methoxy-7-[3-(4-methyl-piperazin-1-yl)-propoxy]-quinolin-4-yloxy}-phenyl)-benzenesulfonamide]	≤ 12.5	≤ 12.5	≤ 12.5													
≤ 12.5	≤ 12.5	12.5 to 50	≤ 12.5	≤ 12.5	COc1cc2c(Oc3ccc(NS(=O)(=O)c4cccc(Oc5ccccc5)c4)cc3F)ccnc2cc1OCCCN1CCN(C)CC1 [Example 14, N-(3-Fluoro-4-{6-methoxy-7-[3-(4-methyl-piperazin-1-yl)-propoxy]-quinolin-4-yloxy}-phenyl)-3-phenoxy-benzenesulfonamide]		≤ 12.5		21 to 40	0 to 20	0 to 20	21 to 40	21 to 40	41 to 60	21 to 40	0 to 20	41 to 60	21 to 40	0 to 20	0 to 20	IC50 [10]: ≤ 12.5 µM
≤ 12.5	≤ 12.5	≤ 12.5	≤ 12.5	≤ 12.5	COc1cc2c(Oc3ccc(NS(=O)(=O)c4cccc(C#N)c4)cc3F)ccnc2cc1OCCCN1CCCC(C)C1 (stereo not shown) [Example 41, 3-Cyano-N-(3-fluoro-4-{6-methoxy-7-[3-(3-methyl-piperidin-1-yl)-propoxy]-quinolin-4-yloxy}-phenyl)-benzenesulfonamide]				0 to 20	41 to 60	21 to 40	0 to 20	41 to 60	21 to 40	0 to 20	21 to 40	21 to 40	41 to 60	0 to 20	0 to 20	IC50 [10]: ≤ 12.5 µM
≤ 12.5	≤ 12.5	12.5 to 50	≤ 12.5	12.5 to 50	COc1cc2c(Oc3ccc(NS(=O)(=O)c4cccc5ccccc45)cc3F)ccnc2cc1OCCCN1CCCC(C)C1 (stereo not shown) [Example 58, Naphthalene-1-sulfonic acid (3-fluoro-4-{6-methoxy-7-[3-(3-methyl-piperidin-1-yl)-propoxy]-quinolin-4-yloxy}-phenyl)-amide]				21 to 40	0 to 20	0 to 20	21 to 40	> 60	21 to 40	0 to 20	41 to 60	41 to 60	> 60	0 to 20	0 to 20	IC50 [10]: ≤ 12.5 µM
≤ 12.5	≤ 12.5	12.5 to 50	≤ 12.5	12.5 to 50	COc1cc2c(Oc3ccc(NS(=O)(=O)c4ccccc4OC)cc3F)ccnc2cc1OCCCN1CCN(C)CC1 [Example 33, N-(3-Fluoro-4-{6-methoxy-7-[3-(4-methyl-piperazin-1-yl)-propoxy]-quinolin-4-yloxy}-phenyl)-2-methoxy-benzenesulfonamide]				21 to 40	0 to 20	0 to 20	21 to 40	> 60	21 to 40	21 to 40	0 to 20	41 to 60	21 to 40	0 to 20	0 to 20	IC50 [10]: ≤ 12.5 µM
≤ 12.5	≤ 12.5	12.5 to 50	≤ 12.5	≤ 12.5	COc1cc2c(Oc3ccc(NS(=O)(=O)c4cc(C)ccc4F)cc3F)ccnc2cc1OCCCN1CCCC(C)C1 (stereo not shown) [Example 55]				21 to 40	0 to 20	21 to 40	0 to 20	0 to 20	0 to 20	> 60	0 to 20	21 to 40	41 to 60	21 to 40	41 to 60	IC50 [10]: ≤ 12.5 µM
